Results on two compounds are retold here after patent publication US6949516B2, “Dipeptide apoptosis inhibitors and the use thereof” (Cytovia, Inc., priority 1997, dated 2005).

In one series the test system is HeLa cells. Briefly: Cell death assay with HeLa cells, quantitative (calcein AM), TNF-α/CHX challenge. It is filed as cell-based. As to the method: The cytoprotective properties of Cbz-Val-Asp(OMe)CH2F were tested using HeLa cells challenged with tumor necrosis factor-alpha (TNF-α) and cycloheximide (CHX). This is a well-characterized cell culture model of apoptosis which is commonly used to analyze anti-apoptotic agents. Two types of experiments were performed: a qualitative assessment of cell death by visualization of the cells using phase contrast microscopy; and a quantitative assessment of cell death using the fluorescent dye calcein AM.
For quantitative assays, the degree of cell survival in the presence of test compounds is analyzed quantitatively using the indicator dye calcein AM. This dye is taken up and converted to a fluorescent derivative by living cells; the amount of activated dye in each well can then be assayed in a fluorometric plate reader and the degree of fluorescence is used as a measure of the number of surviving cells. For these assays, HeLa cells are seeded in 48-well plates at a density of 25,000 cells per well in 0.4 mL of Minimal Essential Medium containing 2 mM glutamine and 10% fetal bovine serum. 24 hours later the plating medium is removed and 0.5 mL of fresh medium containing test compound at various concentrations is added. The cells are pre-incubated with test compound for 2 hours at 37° C. in a CO2 incubator and then TNF-α and CHX are added at final concentrations of 25 ng/mL and 30 μg/mL, respectively. After a 24 hour incubation period, the cultures are washed twice with serum-free, phenol red-free Ham's F12 to remove dead cells and 125 μL of Ham's F12 containing 8 μM calcein AM is added. […] The data are expressed as “Percent Control,” which is calculated by the following equation: Percent Control=(Calcein AM Signal in the Presence of Test Compound+TNF-α and CHX/(Calcein AM Signal in the Presence of CHX Only)×100% The use of CHX-treated cultures as controls, rather than untreated cultures, allows one to correct for the cytostatic effects of CHX. However, because CHX by itself is also a mild inducer of apoptosis in HeLa cells, strong anti-apoptotic drugs will give a Percent Control value greater than 100%.
Quantitative experiments using calcein AM, as described above, corroborate the results obtained by microscopic examination. FIGS. 4 and 5 illustrate the results of two such experiments where the cytoprotective properties of Cbz-Val-Asp(OMe)-CH2F (a) were compared to BOC-Asp(OMe)-CH2F (b) (FIG. 5) and Cbz-Asp(OMe)-Glu(OMe)-Val-Asp(OMe)-CH2F (SEQ ID NO:1) (c) (FIG. 4) at three concentrations (0.5, 5 and 50 μM). […] By contrast, Cbz-Val-Asp(OMe)-CH2F (a) is as effective a cytoprotectant at 0.5 μM as Cbz-Asp(OMe)-Glu(OMe)-Val-Asp(OMe)-CH2F (SEQ ID NO:1) […] is at 50 μM (FIG. 4).
In order to determine the effect of Cbz-Val-Asp(OMe)-CH2F at low doses, HeLa cells were treated with a range of concentrations from 0.05 μM to 1 μM.

Series [1] deals with rat transient focal ischemia model. Briefly: Rat transient focal ischemia model. Conditions: for reduction of cortical infarction: p<0.05. Type of series: in vivo. The text has this: (i) Preparative Surgery: Male Fischer-344 rats (Harlan Sprague Dawley, Calif.) weighing 200-240 g, were used. Animals were initially anesthetized with 3% halothane in a mixture of 30% oxygen and 70% air. Halothane level were reduced to 1.5% for maintenance of anesthesia throughout surgery. […] (b) Arterial catheter implantation: the femoral artery were cannulated to allow monitoring of the blood pressure, and other physiological conditions include pO2, pCO2, pH, glucose, hematocrite, during ischemia, initial drug administration, and the time of arterial reperfusion. Both arterial and venous catheters were exteriorized through the back of the animal, to allow free movement. (c) A PhysioTel Transmitter (Data Sciences International, Mich.) were implanted into the peritoneal cavity to remotely monitor the body temperature of the animals for 22 hours.
(ii) Physiological parameters: Core body temperature was maintained at 37.5° C. during surgery, using a YSI Reusable Temperature Probe (YSI Co. Inc., Yellow Spring, Ohio) connected to a YSI Temperature Control Unit (Model 73A, YSI Co. Inc., Ohio) and a Electric Heating Pad (Model 756, Sunbean-Oster Co. Inc., Hattiesburg, Miss.). Following ischemia, the PhysioTel Transmitter was activated and core body temperature was recorded every 5 minutes. Systemic blood pressure was monitored throughout surgery, during intravenous drug infusion (bolus), and 1, 2, 3, and 4 hours after the onset of ischemia. Other physiological conditions, including pO2, pCO2, pH, glucose, and hematocrite were examined at the time of arterial occlusion and reperfusion.
(iii) Transient focal ischemia model: Following preparative surgery, a ventral midline cervical incision was made to expose both CCAs. The right CCA was permanently ligated with 4-o silk ligature, while the left CCA was clamped with an atraumatic aneurysm clip. A 1-cm incision perpendicular to and bisecting a line between the lateral canthus of the right eye and the external auditory canal was made. The underlying temporalis muscle was excised and retracted and under direct visualization with the aid of a dissecting microscope (Model SZ-STB1, Olympus, Japan), the middle cerebral artery (MCA) was exposed through a 2 mm burr hole drilled 2-3 mm rostral to the fusion of the zygomatic arch and the squamosal bone. Drilling was done under a continuous irrigation of physiological saline. The dura was cut and retracted to expose the MCA in the rhinal fissure. A Codman micro-aneurysm clip (No. 1) was used to temporarily occlude the MCA as it crosses the rhinal fissure. […] The areas of cortical and subcortical infarction were measured blindly with imaging processing software, and the volume of infarction was calculated by adding up individual measures with known thickness. […]

The structures appear in SMILES notation.

In the case of `COC(=O)CC(NC(=O)C(NC(=O)OCc1ccccc1)C(C)C)C(=O)CF` (stereo not drawn) [Cbz-Val-Asp(OMe)-CH2F, Z-Val-Asp-fmk Methyl Ester], the “protection of HeLa cells from TNF-α/CHX (calcein AM)” value in the series with HeLa cells (0.5 μM) is given as “highly active”. Besides, in the series on HeLa cells (range 0.05 μM to 1 μM tested), the “concentration giving significant protection of HeLa cells from TNF-α/CHX” value was not above 0.25 µM.
On to `CC(C)[C@H](NC(=O)OCc1ccccc1)C(=O)NC(CC(=O)O)C(=O)CF` (stereo partly drawn) [Cbz-Val-Asp-CH2F, Z-Val-Asp-fmk], for which the “reduction of cortical infarction” value in series [1] (Experiment 1: rat, 20 mg/kg IV bolus 10 minutes after onset of ischemia + 5 mg/kg/hr IV infusion for 6 h) was 46%; in series [1] (Experiment 2: rat, 20 mg/kg IV bolus 10 minutes after onset of ischemia + 5 mg/kg/hr IV infusion for 12 h), 57%. The “tolerability following acute IV dosing” value in series [1] (rat) is recorded as “well tolerated”. Further, the “changes in blood pressure, blood gas, or temperature following drug administration” value in series [1] (rat, 20 mg/kg IV bolus + 5 mg/kg/hr infusion) was “no changes”.
